Earlier results in patent US20260306413A1, “COLONIC PURGATIVE TABLET AND COLONIC PURGATIVE COMPRISING SAME” (PHARMBIO KOREA CO., LTD., priority 2023, published 2026).

Molecule	complications (oral)	colon cleansing effect (compared to PEG)	side effects (frequency vs PEG)
O=P(O)(O)O [oral sodium phosphate, sodium phosphate]	acute phosphate nephropathy		
Phosphate		colon cleansing effect in smaller doses compared to PEG	side effects such as abdominal inflation, pain, and dizziness at a similar frequency to PEG
